Values of other authors, collected in patent US20130236595A1, “FOOD PRODUCT PROVIDING SUSTAINED BLOOD LEVELS OF EXOGENOUS SUBSTANCES” (NESTEC S.A., priority 2003, published 2013).
Entries after “also recorded” stand apart in the source; their conditions may differ.

Key:
[1] = caffeine in blood plasma

For Cn1c(=O)c2c(ncn2C)n(C)c1=O [caffeine], the “time of peak in caffeine level in blood” value (after a cup of coffee is consumed) is listed as “after about an hour; also recorded: after one hour”, the half-life of caffeine (in adults) is listed as 3 to 7 h and the “threshold value for stimulation” value [1] is listed as “about 2 mg/l”.
